Measured values: patent US12240834B2, “Polymorphs of [2-(1H-indol-3-yl)-1H-imidazol-4-yl] (3,4,5-trimethoxyphenyl)methanone and its salts” (VERU INC., priority 2022, dated 2025)

Experiments:
[1] = Hygroscopicity by dynamic vapor sorption (DVS); assay type: physicochemical; details: for DVS behaviour: moisture adsorption-desorption
Experimental: Hygroscopicity—Dynamic Vapor Sorption (DVS)
DVS is a gravimetric technique that measures how quickly and how much of a solvent (water) is absorbed by a sample. The relative humidity or vapor concentration surrounding the sample is varied while the change in mass of the sample is measured. […] The mass values at each relative humidity step are used to generate an isotherm. Isotherms are divided in two components: sorption for increasing humidity steps and desorption for decreasing humidity steps. A plot of kinetic data is also used to show the change in mass and humidity as a function of time.
The samples were analyzed using a TA Q5000 automated dynamic vapor sorption analyzer. The samples were dried at higher temperature than ambient over a period of time and then cooled to 25° C. with a dry nitrogen purge over them until they no longer lost mass at 0% RH (relative humidity). The samples were then subjected to 0 to 90% RH, back to 10% RH at 25° C. in 10% RH steps.

[2] = Polymorph screen summary of forms (stability designation); assay type: physicochemical
Text: Polymorphism is the ability of a chemical entity to exist in different three-dimensional arrangements in the solid state. Different polymorphic forms of a compound can have different physical properties. […] The screen was designed to prepare as many novel crystalline forms as possible and characterize these polymorphs for use in a pharmaceutical product. […] Samples generated during the study were characterized using differential scanning calorimetry (DSC), polarized light microscopy, thermogravimetric analysis (TGA), X-ray powder diffraction (XRD), Fourier transform infrared spectroscopy (FT-IR), and dynamic vapor sorption (DVS). […] These were essentially the same except for minor changes in the diffraction pattern and DSC thermograms. […] The HCl salt was characterized polymorphic as multiple polymorphic forms were made and characterized as described below. […] Based on diffraction behavior, each polymorphic form was studied to determine differentiation. The characterization of each hydrochloride polymorph form began with an X-ray powder diffraction (XRD) data comparison of each form with the other forms. This was generally followed by DSC and TGA analysis.

[3] = Non-competitive slurry experiments (solid form stability, XRD readout); assay type: physicochemical; details: ambient temperature
Experimental: In addition to the solvent recrystallization experiments (Example 3), non-competitive slurry (Example 4) and competitive slurry (Example 5) experiments were performed to make new solid-state forms. Non-competitive slurry experiments were performed to search for new solid-state forms. These experiments relied on solubility differences of different polymorphic forms (if the compound is polymorphic).
The solution is saturated with respect to the polymorphic form dissolved. […] In addition, noncompetitive slurry experiments are often useful in identifying solvents that form solvates with the compound.
The slurry experiments were performed by exposing excess starting material, which was in all cases in this experiment Form B, to neat single and binary solvent systems and agitating the resulting suspensions for several days at ambient temperature. The solids were vacuum filtered and analyzed by XRD to determine the resulting form. To avoid possible desolvation or physical change after isolation, the samples were not further dried before X-ray analysis.

[4] = Storage of solid forms at ambient conditions (form conversion)

For `COc1cc(C(=O)c2c[nH]c(-c3c[nH]c4ccccc34)n2)cc(OC)c1OC.Cl` [Form A], the “total weight gain (DVS)” value ([1]; at 90% RH) was “about 0.4%”, the “DVS behaviour” value [1] was “very hydrophobic and does not appear to be prone to hydrate formation” and the “Description (stability / hydrate designation of the form)” value [2] was “Metastable”.

For `COc1cc(C(=O)c2c[nH]c(-c3c[nH]c4ccccc34)n2)cc(OC)c1OC.Cl` [Form B], the “Description (stability / hydrate designation of the form)” value [2] was “Metastable”, the “Final Form” value ([3]; 1-Propanol/EtOAc slurry, 11 Days) was “Form E1” and the “Final Form” value ([3]; 2-Propanol/THF slurry, 11 Days) was “Form E1”. For the same molecule, the “Final Form” value ([3]; ACN/Acetone slurry, 11 Days) was “Form E1”, the “Final Form” value ([3]; Acetone slurry, 14 Days) was “Form D” and the “Final Form” value ([3]; Acetonitrile slurry, 14 Days) was “Form D”. The “Final Form” value ([3]; Ethanol slurry, 14 Days) was “Solvate”, the “Final Form” value ([3]; Ethanol/Toluene slurry, 11 Days) was “Form E1” and the “Final Form” value ([3]; Ethanol/acetonitrile slurry, 11 Days) was “Form E1”. The “Final Form” value ([3]; Ethyl acetate slurry, 14 Days) was “Form B”, the “Final Form” value ([3]; Heptane slurry, 14 Days) was “Form B” and the “Final Form” value ([3]; MeOH/Acetone slurry, 11 Days) was “Low crystallinity”. For the same molecule, the “Final Form” value ([3]; Methanol slurry, 14 Days) was “Solvate”, the “Final Form” value ([3]; Methanol/DCM slurry, 11 Days) was “Solvate” and the “Final Form” value ([3]; Methanol/Water slurry, 11 Days) was “Low crystallinity”. The “Final Form” value ([3]; Methylene chloride slurry, 14 Days) was “Form B”, the “Final Form” value ([3]; TFE/DCM slurry, 11 Days) was “Form B” and the “Final Form” value ([3]; TFE/EtOAc slurry, 11 Days) was “Low order”. The “Final Form” value ([3]; THF slurry, 14 Days) was “Form B”, the “Final Form” value ([3]; Toluene slurry, 14 Days) was “Form B” and the “Final Form” value ([3]; Water slurry, 14 Days) was “Low Crystallinity”.

For `COc1cc(C(=O)c2c[nH]c(-c3c[nH]c4ccccc34)n2)cc(OC)c1OC.Cl` [Form CH], the “water uptake (DVS)” value ([1]; at high humidity, returned to starting mass upon completion of the scan) was “up to 0.95 wt %”, the “DVS behaviour” value [1] was “very low uptake of water adsorption” and the “Description (stability / hydrate designation of the form)” value [2] was “Monohydrate”.

With `COc1cc(C(=O)c2c[nH]c(-c3c[nH]c4ccccc34)n2)cc(OC)c1OC.Cl` [Form D] the “Description (stability / hydrate designation of the form)” value [2] was “Metastable”.

In the case of `COc1cc(C(=O)c2c[nH]c(-c3c[nH]c4ccccc34)n2)cc(OC)c1OC.Cl` [Form FH], the “Description (stability / hydrate designation of the form)” value [2] is reported as “Hydrate”.

For `COc1cc(C(=O)c2c[nH]c(-c3c[nH]c4ccccc34)n2)cc(OC)c1OC.Cl` [Form GH], the “Description (stability / hydrate designation of the form)” value [2] was “Hydrate”.

With `COc1cc(C(=O)c2c[nH]c(-c3c[nH]c4ccccc34)n2)cc(OC)c1OC.Cl` [Form H] the “form conversion on holding at ambient conditions” value ([4]; held at ambient conditions) was “not observed to convert to any other polymorphic form” and the “Description (stability / hydrate designation of the form)” value [2] was “Stable Form”.

With `COc1cc(C(=O)c2c[nH]c(-c3c[nH]c4ccccc34)n2)cc(OC)c1OC.Cl` [Form I] the “form conversion on storage” value ([4]; after a month of storage at ambient conditions) was “converted to a mixture of Form CH and Form H” and the “Description (stability / hydrate designation of the form)” value [2] was “Metastable”.

With `COc1cc(C(=O)c2c[nH]c(-c3c[nH]c4ccccc34)n2)cc(OC)c1OC` [free base (Form I)] the “form resulting from slurry (XRD)” value ([3]; slurried in acetone, THF or toluene, several days) was “Form II”.
